For this experiment, the target named is TNF-α (Homo sapiens, UniProt P01375). In words: inhibition of TNFR-1 binding to TNF-α, side-by-side experiment. Particulars: read-out: % inhibition at 10 μM.

As usually defined, the inhibition is how much of the control response was suppressed.

Each structure is given as a SMILES string.

Sequence of TNF-α (P01375 77-233): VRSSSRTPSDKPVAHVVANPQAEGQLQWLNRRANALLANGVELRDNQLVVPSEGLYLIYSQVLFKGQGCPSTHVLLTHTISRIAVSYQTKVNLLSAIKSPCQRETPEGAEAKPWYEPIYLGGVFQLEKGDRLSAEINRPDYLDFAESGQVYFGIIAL

Regarding `Cc1cc2occ(CN(C)CCN(C)Cc3cn(-c4cccc(C(F)(F)F)c4)c4ccccc34)c(=O)c2cc1C` [SPD304], the inhibition at 10 µM came to 34%.
